Experimental data published in patent US8822423B2 (Janssen Biotech, Inc., priority 2012, dated 2014).
Ends that are not written are not given here.

Key:
[1] = system: infliximab; test: Infliximab affinity peptide ELISA, concentration dependent binding; conditions: biotinylated synthesized peptides, 0.0028-500 micromolar, FIG. 5
Procedure: 96-well black ELISA plates were coated with goat anti-human Fc (Jackson Immunoresearch Laboratories, Inc., West Grove, Pa., cat. #109-006-098) at a concentration of 5 micrograms/mL in PBS. Plates were incubated overnight at 4° C. Plates were washed 3 times with TBST using a plate washer. […] To all other wells, 100 microliters of PBS was introduced. The plates were again washed 3 times with TBST using the plate washer. The wells were then blocked with 250 microliters of a 3% dehydrated milk suspension in TBST and allowed to sit at room temperature for a minimum of 1 hour. Biotinylated, chemically synthesized peptides having SEQ ID NO: 2, SEQ ID NO: 3, SEQ ID NO: 10, and SEQ ID NO: 13 were prepared using standard, automated Fluorenylmethyloxycarbonyl (Fmoc) solid phase peptide synthesis procedures. Each peptide solution for the assay was prepared from a 500 micromolar stock solution. The stock solution was serially diluted in assay buffer resulting in peptide concentrations of 500, 166.6, 55.5, 18.5, 6.2, 2.1, 0.69, 0.23, 0.076, 0.025, 0.0085 and 0.0028 micromolar.
After blocking, the ELISA plate was washed 3 times with TBST and 100 microliters of the serially diluted peptides were added to the corresponding wells of the ELISA plate and allowed to sit at room temperature for a minimum of 1 hour. […] The luminescence was read using a luminometer set with a gain of 150.

[2] = system: infliximab; test: Confirmatory phage ELISA, binding of phage-displayed peptides to infliximab; conditions: FIG. 3, N value of 2
Procedure: 96-well black ELISA plates were coated with streptavidin (Columns 1 through 4), mAb competitor (Columns 5 and 6), hIgG (Columns 7 and 8), human serum albumin (Columns 9 and 10) and collagen (Columns 11 and 12), at a concentration of 5 micrograms/mL in PBS. Plates were incubated overnight at 4° C. Plates were washed 3 times with TBST using a plate washer. To the streptavidin-coated wells in columns 3 and 4, 100 microliters of a 5 micrograms/mL solution of biotinylated-infliximab was introduced and allowed to sit at room temperature for 30 minutes. To all other wells, 100 microliters of PBS was introduced. The plates were again washed 3 times with TBST using the plate washer. The wells were then blocked with 250 microliters of a 3% dehydrated milk suspension in TBST and allowed to sit at room temperature for a minimum of 1 hour. Using phage concentrations determined by the phage titrations, dilutions of the phage stock solutions were performed in a separate 96-well plate to result in phage concentrations of 10^10, 10^9, 10^8, 10^7, 10^6 and 10^5 phage/well. After blocking, the ELISA plate was washed 3 times with TBST and 100 microliters of the phage dilutions were introduced to the respective ELISA plates and allowed to sit at room temperature for a minimum of 1 hour. The ELISA plate was again washed 3 times with TBST using the plate washer and 100 microliters of an horseradish peroxidase (HRP)-conjugated Anti-M13 Phage Mab (1:5000 dilution in PBS) was introduced to each well. The plates were allowed to sit at room temperature for 1 hour after which time the plates were washed 3 times with TBST. Next, a peroxidase-based (POD) HRP-substrate was introduced to each well. The luminescence was read using a luminometer set with a gain of 150.

[3] = system: WEHI-13VAR mouse fibroblasts; test: In vitro bioactivity of infliximab in the presence of affinity peptides, MTT cell viability with TNF-α; type: cell-based; conditions: peptide 66 nanomolar, infliximab 0-66 nanomolar, overnight, FIG. 7
Procedure: In this experiment, we determined if the affinity peptides would interfere with the binding of tumor necrosis factor alpha (TNF-α) using WEHI-13VAR mouse fibroblasts.
WEHI-13VAR cells (mouse fibroblast cell line) were plated out in wells of a 96 well plate two hours prior to running the experiment at 50000 cells per well. […] After overnight incubation, cell viability was assessed using an MTT cell viability assay (R&D Systems, Inc., Minneapolis, Minn., cat #4890-050-K) following the product insert.

[4] = given by IV infusion; cited from earlier work

Row | Substance | binding to infliximab (phage ELISA, relative luminescence) [2] | also measured
1 | SEQ ID NO: 3: infliximab affinity peptide of FIG. 1; also chemically synthesized, biotinylated (AGTYCHPDQLRNLCPV; cysteine pairing not given here; also: biotinylated, position not given here) | confirms the binding | rank according to concentration-dependent binding to infliximab [1]: SEQ ID NO: 2>SEQ ID NO: 10>SEQ ID NO: 3>SEQ ID NO: 13
2 | SEQ ID NO: 14: infliximab affinity peptide of FIG. 1, identified by pIX phage display (AGARCAPAFDANWLICSN) | confirms the binding | 
3 | SEQ ID NO: 8: infliximab affinity peptide of FIG. 1, identified by pIX phage display (AGNYCHPDQLSQFCAR) | confirms the binding | 
4 | SEQ ID NO: 16: infliximab affinity peptide of FIG. 1, identified by pIX phage display (AGVVCATPEWTWDPACAT) | confirms the binding | 
5 | SEQ ID NO: 19: infliximab affinity peptide of FIG. 1, identified by pIX phage display (AGPPYTVFVHL) | confirms the binding | 
6 | SEQ ID NO: 12: infliximab affinity peptide of FIG. 1, identified by pIX phage display (AGIQCHDVGAGVVTCTY) | confirms the binding | 
7 | SEQ ID NO: 7: infliximab affinity peptide of FIG. 1, identified by pIX phage display (AGTHCSYVLGRIECLP) | confirms the binding | 
8 | SEQ ID NO: 6: infliximab affinity peptide of FIG. 1, identified by pIX phage display (AGEICYWHDTDWVCTE) | confirms the binding | 
9 | SEQ ID NO: 13: infliximab affinity peptide of FIG. 1; also chemically synthesized, biotinylated (AGPPCIVTQLSDLSFCAP; cysteine pairing not given here; also: biotinylated, position not given here) | confirms the binding | rank according to concentration-dependent binding to infliximab [1]: SEQ ID NO: 2>SEQ ID NO: 10>SEQ ID NO: 3>SEQ ID NO: 13; effect on the viability of WEHI-13VAR mouse fibroblasts in the presence of infliximab [3]: minimal effect
10 | SEQ ID NO: 4: infliximab affinity peptide of FIG. 1, identified by pIX phage display (AGVTCRMTEYGPMCPT) | confirms the binding | 
11 | SEQ ID NO: 21: infliximab affinity peptide of FIG. 1, identified by pIX phage display (AGPCISDYFDPCH) | confirms the binding | 
12 | SEQ ID NO: 22: infliximab affinity peptide of FIG. 1, identified by pIX phage display (AGLCPELPHC) | confirms the binding | 
13 | SEQ ID NO: 11: infliximab affinity peptide of FIG. 1, identified by pIX phage display (AGSLCHTVGSGIYNCTK) | confirms the binding | 
14 | SEQ ID NO: 17: infliximab affinity peptide of FIG. 1, identified by pIX phage display (AGLLCAPSLDPDYILCDQ) | confirms the binding | 
15 | SEQ ID NO: 1: infliximab affinity peptide of FIG. 1, identified by pIX phage display (AGWTVAYVPPGPSYATS) | confirms the binding | 
16 | SEQ ID NO: 23: infliximab affinity peptide of FIG. 1, identified by pIX phage display (AGPCPELPHCTY) | confirms the binding | 
17 | SEQ ID NO: 18: infliximab affinity peptide of FIG. 1; wild type for site-directed mutagenesis (AG-XXXX-PWPPTAES-XXXX mutants) (AGLLCEPWPPTAESICRS) | confirms the binding | 
18 | SEQ ID NO: 5: infliximab affinity peptide of FIG. 1, identified by pIX phage display (AGNRCAYAAGTIQCFP) | confirms the binding | 
19 | SEQ ID NO: 20: infliximab affinity peptide of FIG. 1, identified by pIX phage display (AGYCISDYIDPCH) | confirms the binding | 
20 | SEQ ID NO: 15: infliximab affinity peptide of FIG. 1, identified by pIX phage display (AGPPCAAAMAQAQLACTH) | confirms the binding | 
21 | infliximab: chimeric IgG1κ monoclonal antibody that blocks the action of TNF-alpha |  | half-life [4]: approximately eight
22 | SEQ ID NO: 9: infliximab affinity peptide of FIG. 1, identified by pIX phage display (AGVACHSTGTNIYTCTY) | confirms the binding | 
